For one data set, the system named is Cryptosporidium parvum. In words: qRT-PCR assay of the growth of C. parvum in vitro in HCT-8 host cells (primary and secondary screening, EC50). Format: cell-based. The conditions noted are these: Cryptosporidium parvum, HCT-8; for inhibition at 10 µM: primary screening at 10 uM, read-out: Inhibition (%); for inhibition at 3.3 µM: secondary screening at 3.3 uM, read-out: % Inhibition (3.3 uM). (In general: Quantitative PCR measures a nucleic acid by following its amplification.)

[1] abbreviates: primary screening at 10 uM, treated vs control.

Structures can show the parent of a compound that is named as a salt. Where two headings read alike, the source gives them in different places.

Take `COc1c2ccoc2cc2oc(=O)ccc12` [BERGAPTEN]: the inhibition at 10 µM with Cryptosporidium parvum is -22.3%. Moreover, the “Hs18S ΔCT” value in the data set on HCT-8 host cells (Hs18S) (setting [1]) turned out to be 0.06. In “in vitro”, the cytotoxicity at 10 µM was 4.3%.
The corresponding values for `C=CCN1CC[C@]23c4c5ccc(O)c4O[C@H]2C(=O)CC[C@@]3(O)[C@H]1C5` [NALOXONE HYDROCHLORIDE] are 21.9%, 0.20 and 12.7%.
On to `CC(C)(O)CC[C@@H](O)[C@](C)(O)[C@H]1CC[C@@]2(O)C3=CC(=O)[C@@H]4C[C@@H](O)[C@@H](O)C[C@]4(C)[C@H]3CC[C@]12C` [CRUSTECDYSONE], for which the inhibition at 10 µM with Cryptosporidium parvum was determined as 39.8%. Also, the “Hs18S ΔCT” value with HCT-8 host cells (Hs18S) (setting [1]) is recorded as -0.15. Also, the cytotoxicity at 41 h, 10 µM in the data set “in vitro” (human) was -10.6%.
In the case of `COc1cccc2c1cc([N+](=O)[O-])c1c(C(=O)O)cc3c(c12)OCO3` [ARISTOLOCHIC ACID], the inhibition at 10 µM with Cryptosporidium parvum is 8.39%. Besides, the “Hs18S ΔCT” value in the data set on HCT-8 host cells (Hs18S) (setting [1]) was -0.03. Further, the cytotoxicity at 41 h, 10 µM in the data set “in vitro” is -1.8%.
As to `COc1cc(O)c2c(c1)C(=O)c1cc(C)cc(O)c1C2=O` [PHYSCION], in the data set with Cryptosporidium parvum, the inhibition at 10 µM is -57.5%. Also, in the data set on HCT-8 host cells (Hs18S) (setting [1]), the “Hs18S ΔCT” value is recorded as 0.20. Besides, the cytotoxicity at 10 µM in the data set “in vitro” turned out to be 12.9%.
The corresponding values for `COc1cc(C(=O)O)cc(OC)c1O` [SYRINGIC ACID] are 3.63%, -0.26 and -20%.
Consider `CC(C)=CCC/C(C)=C\CO` [NEROL], for which the inhibition at 10 µM in the data set with Cryptosporidium parvum is -20.6%. Moreover, in the data set with HCT-8 host cells (Hs18S) (human, 41 h, 10 μM), the “Hs18S ΔCT” value is recorded as 0.43. Further, in the data set “in vitro” (human), the cytotoxicity at 41 h, 10 µM was 25.8%.
Take `COc1cc(C2Oc3cc([C@H]4Oc5cc(O)cc(O)c5C(=O)[C@@H]4O)ccc3OC2CO)ccc1O` (some centres unmarked) [SILIBININ]: in the data set on Cryptosporidium parvum, the inhibition at 10 µM was 93.5% and the inhibition at 3.3 µM was -30%. For the same molecule, the “Hs18S ΔCT” value in the data set on HCT-8 host cells (Hs18S) (human, 41 h, 10 μM) is given as -0.02. Further, in the data set “in vitro” (human), the cytotoxicity at 41 h, 10 µM is -1.4%.
Consider `COc1ccc2c(=O)c(OC)c(-c3ccccc3)oc2c1` [3,7-DIMETHOXYFLAVONE], for which, in the data set with Cryptosporidium parvum, the inhibition at 10 µM is 49.7%. For the same molecule, in the data set with HCT-8 host cells (Hs18S) (human, 41 h, 10 μM), the “Hs18S ΔCT” value is -0.21. The cytotoxicity at 41 h, 10 µM in the data set “in vitro” (human) was -15.4%.
With `CCOc1ccc(C(=O)c2ccc(O)c(O)c2O)cc1` [2,3,4-TRIHYDROXY-4'-ETHOXYBENZOPHENONE], the inhibition at 10 µM with Cryptosporidium parvum was -43.7%. In addition, the “Hs18S ΔCT” value with HCT-8 host cells (Hs18S) (human, 41 h, 10 μM) is recorded as 0.22. For the same molecule, the cytotoxicity at 41 h, 10 µM in the data set “in vitro” (human) was determined as 14.4%.
Consider `C=C[C@H]1C[N@@]2CC[C@H]1C[C@@H]2[C@@H](O)c1ccnc2ccccc12` [CINCHONINE], for which the inhibition at 10 µM with Cryptosporidium parvum is -10.5%. Besides, in the data set with HCT-8 host cells (Hs18S) (setting [1]), the “Hs18S ΔCT” value turned out to be 0.01. In the data set “in vitro”, the cytotoxicity at 41 h, 10 µM stood at 0.4%.
Regarding `COc1cc(/C=C/C(=O)N2CCC=CC2=O)cc(OC)c1OC` [PIPLARTINE], in the data set with Cryptosporidium parvum, the inhibition at 10 µM amounted to 73.7% and the inhibition at 3.3 µM came out at 10%. For the same molecule, the “Hs18S ΔCT” value in the data set with HCT-8 host cells (Hs18S) (setting [1]) is given as 0.33. For the same molecule, in “in vitro”, the cytotoxicity at 10 µM turned out to be 20.5%.
For `Cc1cc(O)c(C=O)c2c1C(=O)Oc1c(C)c(O)c3c(c1O2)C(O)OC3=O` (centres unmarked) [NORSTICTIC ACID], the inhibition at 10 µM in the data set with Cryptosporidium parvum was -20.8%. Further, the “Hs18S ΔCT” value with HCT-8 host cells (Hs18S) (human, 41 h, 10 μM) is recorded as -0.18. The cytotoxicity at 41 h, 10 µM in “in vitro” (human) is -13.4%.
The corresponding values for `CCCCCc1c2c(cc(O)c1C(=O)O)OC(=O)c1c(cc(OC)cc1C(=O)CCCC)O2` [LOBARIC ACID] are 18.2%, 0.20 and 13.1%.
The corresponding values for `OC[C@@H](O)[C@@H](O)[C@@H](O)CO` [ADONITOL] are 6.19%, 0.26 and 16.4%.
For the molecule `O=c1c(-c2ccc(O)cc2)coc2cc(O)cc(O)c12` [GENISTEIN], in the data set on Cryptosporidium parvum, the inhibition at 10 µM worked out at 6.85%. Moreover, the “Hs18S ΔCT” value in the data set with HCT-8 host cells (Hs18S) (setting [1]) worked out at 0.20. Further, in the data set “in vitro”, the cytotoxicity at 10 µM turned out to be 12.7%.
In the case of `O=C(O)/C=C/C=C/c1ccc2c(c1)OCO2` [PIPERIC ACID], in the data set on Cryptosporidium parvum, the inhibition at 10 µM was 0.79%. Also, the “Hs18S ΔCT” value in the data set on HCT-8 host cells (Hs18S) (setting [1]) is on record as -0.02. Moreover, the cytotoxicity at 10 µM in the data set “in vitro” is -1.7%.
For the molecule `COC(=O)[C@@H]1[C@H]2C[C@H]3c4[nH]c5ccccc5c4CCN3C[C@@H]2CC[C@@H]1O` [YOHIMBINE HYDROCHLORIDE], in the data set with Cryptosporidium parvum, the inhibition at 10 µM turned out to be 5.49%. In addition, the “Hs18S ΔCT” value in the data set with HCT-8 host cells (Hs18S) (human, 41 h, 10 μM) is -0.45. The cytotoxicity at 41 h, 10 µM in the data set “in vitro” (human) is -36.5%.
As for `COc1cccc(-c2cc(=O)c3cc(OC)ccc3o2)c1` [6,3'-DIMETHOXYFLAVONE], the inhibition at 10 µM with Cryptosporidium parvum was found to be 1.27%. The “Hs18S ΔCT” value with HCT-8 host cells (Hs18S) (human, 41 h, 10 μM) is -0.08. Also, the cytotoxicity at 41 h, 10 µM in “in vitro” (human) is -5.6%.
`COc1cc(-c2coc3cc(OC)c(OC)c(OC)c3c2=O)cc(OC)c1OC` [IRIGENIN TRIMETHYL ETHER]: the inhibition at 10 µM with Cryptosporidium parvum was 13.7%. Besides, in the data set on HCT-8 host cells (Hs18S) (setting [1]), the “Hs18S ΔCT” value is given as -0.48. In addition, the cytotoxicity at 10 µM in “in vitro” was -39.9%.
The corresponding values for `CNC(=O)Oc1ccc2c(c1)[C@]1(C)CCN(C)[C@@H]1N2C` [PHYSOSTIGMINE SALICYLATE] are -4.89%, -0.12 and -8.6%.

As a reminder, the inhibition is the drop in the measured response relative to a control, in per cent.

The values above are taken from paper PMC6736568, “Discovery of Novel Anti-cryptosporidial Activities From Natural Products by in vitro High-Throughput Phenotypic Screening” (Frontiers in Microbiology, 2019).
